Laboratory results taken from ChEMBL document CHEMBL6109142 (J Med Chem, 2025).
Active and inactive are the calls of the source. The calls are words filed in the database; no cut-off is given here.

Target: Procathepsin L (Homo sapiens, UniProt P07711)
Assay: Inhibition of recombinant human C-terminal 6 his-tagged Cathepsin L assessed as inhibition constant using Z-LR-AMC as peptide substrate incubated for 1 hr by fluorescence based analysis
Conditions: not given

Sequence of Procathepsin L (P07711 114-333 limits assumed): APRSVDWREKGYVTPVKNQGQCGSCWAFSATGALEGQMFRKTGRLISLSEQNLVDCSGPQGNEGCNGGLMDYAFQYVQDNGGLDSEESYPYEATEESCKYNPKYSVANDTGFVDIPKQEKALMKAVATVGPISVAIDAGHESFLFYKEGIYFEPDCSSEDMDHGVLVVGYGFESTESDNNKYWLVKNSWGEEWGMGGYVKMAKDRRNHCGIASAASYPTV

| SMILES | inhibition |
| --- | --- |
| C[C@H](NC(=O)[C@H](CCC(N)=O)NC(=O)CCCCNC(=N)N)C(=O)N[C@@H](CCCNC(=N)N)C(=O)c1nc2ccccc2s1 | inactive |
| CS(=O)(=O)N[C@@H](CCC(N)=O)C(=O)N[C@@H](Cc1ccccc1)C(=O)N[C@@H](CCCNC(=N)N)C(=O)c1nccs1 | inactive |
| CS(=O)(=O)N[C@@H](CCC(N)=O)C(=O)N[C@@H](Cc1ccccc1)C(=O)N[C@@H](CCCNC(=N)N)C(=O)c1nc2ccccc2s1 | inactive |

Tested on: SARS-CoV-2
Assay: Antiviral activity against SARS-CoV-2 EG.5.1 infected in human Calu-3 cells assessed as reduction in residual intracellular nucleocapsid value at 1 uM preincubated with cells for 3 hrs followed by viral infection and measured after 48 hrs by immunostaining based analysis
Type: functional, organism-based
Conditions: Severe acute respiratory syndrome coronavirus 2, time 51.0 hrs

| SMILES | Activity |
| --- | --- |
| C[C@H](NC(=O)[C@H](CCC(N)=O)NC(=O)CCCCNC(=N)N)C(=O)N[C@@H](CCCNC(=N)N)C(=O)c1nc2ccccc2s1 | Active |
| CS(=O)(=O)N[C@@H](CCC(N)=O)C(=O)N[C@@H](Cc1ccccc1)C(=O)N[C@@H](CCCNC(=N)N)C(=O)c1nccs1 | Active |
| CS(=O)(=O)N[C@@H](CCC(N)=O)C(=O)N[C@@H](Cc1ccccc1)C(=O)N[C@@H](CCCNC(=N)N)C(=O)c1nc2ccccc2s1 | Active |

Tested on: SARS-CoV-2
Assay: Antiviral activity against SARS-CoV-2 JN.1 infected in human Calu-3 cells preincubated with cells for 3 hrs followed by viral infection and measured after 48 hrs by immunostaining based analysis
Type: functional, organism-based
Conditions: Severe acute respiratory syndrome coronavirus 2, JN.1, Calu-3

| SMILES | EC50 |
| --- | --- |
| C[C@H](NC(=O)[C@H](CCC(N)=O)NC(=O)CCCCNC(=N)N)C(=O)N[C@@H](CCCNC(=N)N)C(=O)c1nc2ccccc2s1 | 2.8 nM |
| CS(=O)(=O)N[C@@H](CCC(N)=O)C(=O)N[C@@H](Cc1ccccc1)C(=O)N[C@@H](CCCNC(=N)N)C(=O)c1nccs1 | 8.5 nM |
| CS(=O)(=O)N[C@@H](CCC(N)=O)C(=O)N[C@@H](Cc1ccccc1)C(=O)N[C@@H](CCCNC(=N)N)C(=O)c1nc2ccccc2s1 | 3.3 nM |

Tested on: SARS-CoV-2
Assay: Antiviral activity against SARS-CoV-2 pseudotyped with delta spike protein infected in human Calu-3 cells assessed as prevention of virus-like particle cellular entry at 300 nM preincubated with cells for 3 hrs followed by viral infection and measured after 72 hrs by ONE-Glo-Ex luciferase assay relative to control
Type: functional, Severe acute respiratory syndrome coronavirus 2
Conditions: time 75 hrs

| SMILES | Activity |
| --- | --- |
| C[C@H](NC(=O)[C@H](CCC(N)=O)NC(=O)CCCCNC(=N)N)C(=O)N[C@@H](CCCNC(=N)N)C(=O)c1nc2ccccc2s1 | 12% |
| CS(=O)(=O)N[C@@H](CCC(N)=O)C(=O)N[C@@H](Cc1ccccc1)C(=O)N[C@@H](CCCNC(=N)N)C(=O)c1nccs1 | 14% |
| CS(=O)(=O)N[C@@H](CCC(N)=O)C(=O)N[C@@H](Cc1ccccc1)C(=O)N[C@@H](CCCNC(=N)N)C(=O)c1nc2ccccc2s1 | 16% |

Tested on: Calu-3
Assay: Cytotoxicity against human Calu-3 cells assessed as cell viability at 10 uM measured after 72 hrs by luminescence based Cell-Titer-Glo assay
Type: toxicity
Conditions: calu-3, 72 h

| SMILES | Activity |
| --- | --- |
| C[C@H](NC(=O)[C@H](CCC(N)=O)NC(=O)CCCCNC(=N)N)C(=O)N[C@@H](CCCNC(=N)N)C(=O)c1nc2ccccc2s1 | Non-toxic |
| CS(=O)(=O)N[C@@H](CCC(N)=O)C(=O)N[C@@H](Cc1ccccc1)C(=O)N[C@@H](CCCNC(=N)N)C(=O)c1nccs1 | Non-toxic |
| CS(=O)(=O)N[C@@H](CCC(N)=O)C(=O)N[C@@H](Cc1ccccc1)C(=O)N[C@@H](CCCNC(=N)N)C(=O)c1nc2ccccc2s1 | Non-toxic |

Target: T1, Transmembrane protease serine 2 (Homo sapiens, UniProt O15393)
T1 sequence (O15393 1-255 limits assumed): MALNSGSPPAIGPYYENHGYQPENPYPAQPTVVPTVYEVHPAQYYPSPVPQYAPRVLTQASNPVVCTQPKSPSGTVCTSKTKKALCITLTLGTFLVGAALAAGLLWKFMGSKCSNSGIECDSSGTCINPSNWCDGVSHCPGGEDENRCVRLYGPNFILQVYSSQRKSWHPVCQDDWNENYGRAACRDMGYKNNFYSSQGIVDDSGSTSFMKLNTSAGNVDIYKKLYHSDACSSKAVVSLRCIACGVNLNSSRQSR
T1 sequence (O15393 256-492 limits assumed): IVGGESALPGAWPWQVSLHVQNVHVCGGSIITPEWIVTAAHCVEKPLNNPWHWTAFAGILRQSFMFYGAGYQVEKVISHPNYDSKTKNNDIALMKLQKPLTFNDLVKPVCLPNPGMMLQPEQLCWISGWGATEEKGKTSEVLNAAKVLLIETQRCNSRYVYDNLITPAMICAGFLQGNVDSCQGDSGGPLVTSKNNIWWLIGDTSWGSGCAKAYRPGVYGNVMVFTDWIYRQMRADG
Assay: Inhibition of recombinant TMPRSS2 (unknown origin) extracted from baculovirus infected in Sf9 cells assessed as residual activity using Boc-QAR-AMC as substrate at 1 nM measured after 1 hr by fluorescence based analysis relative to control
Conditions: not given

| SMILES | Activity |
| --- | --- |
| C[C@H](NC(=O)[C@H](CCC(N)=O)NC(=O)CCCCNC(=N)N)C(=O)N[C@@H](CCCNC(=N)N)C(=O)c1nc2ccccc2s1 | 46% |
| CS(=O)(=O)N[C@@H](CCC(N)=O)C(=O)N[C@@H](Cc1ccccc1)C(=O)N[C@@H](CCCNC(=N)N)C(=O)c1nccs1 | 11% |
| CS(=O)(=O)N[C@@H](CCC(N)=O)C(=O)N[C@@H](Cc1ccccc1)C(=O)N[C@@H](CCCNC(=N)N)C(=O)c1nc2ccccc2s1 | 13% |

Tested on: SARS-CoV-2
Assay: Antiviral activity against SARS-CoV-2 EG.5.1 infected in human Calu-3 cells preincubated with cells for 3 hrs followed by viral infection and measured after 48 hrs by immunostaining based analysis
Type: functional, organism-based
Conditions: Severe acute respiratory syndrome coronavirus 2, EG.5.1, Calu-3

| SMILES | EC50 |
| --- | --- |
| C[C@H](NC(=O)[C@H](CCC(N)=O)NC(=O)CCCCNC(=N)N)C(=O)N[C@@H](CCCNC(=N)N)C(=O)c1nc2ccccc2s1 | 11.9 nM |
| CS(=O)(=O)N[C@@H](CCC(N)=O)C(=O)N[C@@H](Cc1ccccc1)C(=O)N[C@@H](CCCNC(=N)N)C(=O)c1nccs1 | 21.7 nM |
| CS(=O)(=O)N[C@@H](CCC(N)=O)C(=O)N[C@@H](Cc1ccccc1)C(=O)N[C@@H](CCCNC(=N)N)C(=O)c1nc2ccccc2s1 | 29.1 nM |

Target: Coagulation factor X (Homo sapiens, UniProt P00742)
Sequence (P00742 41-179 limits assumed): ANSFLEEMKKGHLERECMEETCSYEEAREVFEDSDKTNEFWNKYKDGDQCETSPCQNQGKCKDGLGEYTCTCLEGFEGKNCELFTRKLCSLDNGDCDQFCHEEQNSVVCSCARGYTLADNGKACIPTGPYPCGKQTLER
Sequence (P00742 235-488 limits assumed): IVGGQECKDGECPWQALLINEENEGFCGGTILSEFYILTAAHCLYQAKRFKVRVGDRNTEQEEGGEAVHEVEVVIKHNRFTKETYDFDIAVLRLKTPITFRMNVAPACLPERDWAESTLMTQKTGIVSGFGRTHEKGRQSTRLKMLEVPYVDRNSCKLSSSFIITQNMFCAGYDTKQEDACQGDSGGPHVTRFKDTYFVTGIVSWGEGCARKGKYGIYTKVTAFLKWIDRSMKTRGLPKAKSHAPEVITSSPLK
Assay: Inhibition of recombinant human C-terminal 10 his-tagged FXa extracted from baculovirus infected in Sf9 cells assessed as inhibition constant using Mca-RPKPVE-Nval-WRK(Dnp)-NH2 as substrate incubated for 1 hr by fluorescence based analysis
Conditions: not given

| SMILES | Ki |
| --- | --- |
| CS(=O)(=O)N[C@@H](CCC(N)=O)C(=O)N[C@@H](Cc1ccccc1)C(=O)N[C@@H](CCCNC(=N)N)C(=O)c1nccs1 | 9.2 nM |

Target: T1, Transmembrane protease serine 2
Assay: Inhibition of recombinant das TMPRSS2 (unknown origin) extracted from baculovirus infected in Sf9 cells assessed as inhibition constant using Boc-QAR-AMC as substrate measured after 1 hr by fluorescence based analysis
Conditions: not given

| SMILES | Ki |
| --- | --- |
| C[C@H](NC(=O)[C@H](CCC(N)=O)NC(=O)CCCCNC(=N)N)C(=O)N[C@@H](CCCNC(=N)N)C(=O)c1nc2ccccc2s1 | 0.53 nM |

Target: T2, Suppressor of tumorigenicity 14 protein (Homo sapiens, UniProt Q9Y5Y6)
T2 sequence (Q9Y5Y6 whole entry): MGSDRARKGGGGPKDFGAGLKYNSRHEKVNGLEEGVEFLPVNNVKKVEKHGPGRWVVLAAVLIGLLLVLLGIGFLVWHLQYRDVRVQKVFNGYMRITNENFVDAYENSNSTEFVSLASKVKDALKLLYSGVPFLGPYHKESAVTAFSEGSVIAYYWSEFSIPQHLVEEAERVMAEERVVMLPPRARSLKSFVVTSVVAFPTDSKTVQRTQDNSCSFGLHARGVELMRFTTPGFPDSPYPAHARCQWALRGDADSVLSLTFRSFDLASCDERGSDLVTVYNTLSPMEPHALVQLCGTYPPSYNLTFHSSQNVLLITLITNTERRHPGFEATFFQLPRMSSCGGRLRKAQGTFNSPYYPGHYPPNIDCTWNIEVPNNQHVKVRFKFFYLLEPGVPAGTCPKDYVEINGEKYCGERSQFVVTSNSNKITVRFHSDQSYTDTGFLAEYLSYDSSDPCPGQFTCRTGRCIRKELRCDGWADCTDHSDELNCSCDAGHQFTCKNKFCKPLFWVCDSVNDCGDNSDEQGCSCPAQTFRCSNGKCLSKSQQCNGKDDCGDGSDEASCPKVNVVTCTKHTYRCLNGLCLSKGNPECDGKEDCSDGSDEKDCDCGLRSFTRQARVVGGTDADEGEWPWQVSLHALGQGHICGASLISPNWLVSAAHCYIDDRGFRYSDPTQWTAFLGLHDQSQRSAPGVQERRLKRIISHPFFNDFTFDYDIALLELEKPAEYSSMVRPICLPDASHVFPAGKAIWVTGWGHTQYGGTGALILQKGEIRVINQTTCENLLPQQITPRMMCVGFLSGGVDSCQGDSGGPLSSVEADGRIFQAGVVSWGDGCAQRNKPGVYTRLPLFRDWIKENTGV
Assay: Inhibition of Matriptase (unknown origin) assessed as inhibition constant using Boc-QAR-AMC as substrate incubated for 1 hr by fluorescence based analysis
Conditions: not given

| SMILES | Ki |
| --- | --- |
| C[C@H](NC(=O)[C@H](CCC(N)=O)NC(=O)CCCCNC(=N)N)C(=O)N[C@@H](CCCNC(=N)N)C(=O)c1nc2ccccc2s1 | 0.16 nM |

Target: T1, Transmembrane protease serine 2
Assay: Inhibition of recombinant TMPRSS2 (unknown origin) extracted from baculovirus infected in Sf9 cells using Boc-QAR-AMC as substrate measured after 1 hr by fluorescence based analysis
Conditions: not given

| SMILES | IC50 |
| --- | --- |
| C[C@H](NC(=O)[C@H](CCC(N)=O)NC(=O)CCCCNC(=N)N)C(=O)N[C@@H](CCCNC(=N)N)C(=O)c1nc2ccccc2s1 | 2.4 nM |
| CS(=O)(=O)N[C@@H](CCC(N)=O)C(=O)N[C@@H](Cc1ccccc1)C(=O)N[C@@H](CCCNC(=N)N)C(=O)c1nccs1 | 0.87 nM |

Tested on: not listed separately
Assay: Cytotoxicity against human Calu-3 cells assessed as cell viability measured after 72 hrs by luminescence based Cell-Titer-Glo assay
Type: toxicity
Conditions: not given

| SMILES | CC50 at 72 h |
| --- | --- |
| CS(=O)(=O)N[C@@H](CCC(N)=O)C(=O)N[C@@H](Cc1ccccc1)C(=O)N[C@@H](CCCNC(=N)N)C(=O)c1nccs1 | 110000 nM |
